Assay results taken from patent US9981928B2, “Aryl sulfide derivatives and aryl sulfoxide derivatives as acaricides and insecticides” (BAYER CROPSCIENCE AKTIENGESELLSCHAFT, priority 2013, dated 2018).
Where two headings read alike, the source gives them in different places.

Columns and labels:
[1] = system: cattle ticks (Boophilus microplus); test: Boophilus microplus injection test (BOOPMI inj); format: in vivo; conditions: injection into the abdomen; application rate 20 μg/animal; assessed after 7 days
Experimental: Boophilus microplus—Injection Test (BOOPMI inj)
Solvent: dimethyl sulfoxide
To produce a suitable preparation of active compound, 10 mg of active compound are mixed with 0.5 ml of solvent and the concentrate is diluted with solvent to the desired concentration.
1 μl of the active compound solution is injected into the abdomen of 5 engorged adult female cattle ticks (Boophilus microplus). The animals are transferred into dishes and kept in a climate-controlled room.
Efficacy is assessed after 7 days by laying of fertile eggs. Eggs which are not visibly fertile are stored in a climate-controlled cabinet until the larvae hatch after about 42 days. An efficacy of 100% means that none of the ticks has laid any fertile eggs; 0% means that all the eggs are fertile.

[2] = system: southern root-knot nematode (Meloidogyne incognita); test: Meloidogyne incognita test (MELGIN); format: in vivo; conditions: lettuce in sand; application rate 20 ppm; after 14 days
Experimental: Meloidogvne incognita test (MELGIN)
Solvent: 125.0 parts by weight of acetone
To produce a suitable preparation of active compound, 1 part by weight of active compound is mixed with the stated amount of solvent and the concentrate is diluted with water to the desired concentration.
Vessels are filled with sand, active compound solution, an egg/larvae suspension of the southern root-knot nematode (Meloidogyne incognita) and lettuce seeds. The lettuce seeds germinate and the plants develop. The galls develop on the roots.
After 14 days, the nematicidal efficacy in % is determined by the formation of galls. 100% means that no galls were found; 0% means that the number of galls on the treated plants corresponds to the untreated control.

[3] = system: greenhouse red spider mite (Tetranychus urticae); test: Tetranychus urticae spray test, OP-resistant (TETRUR), bean leaf disks; format: in vivo; conditions: bean leaf disks, after 6 days; for pest or weed control at 500 g/ha: Tetranychus urticae, foliar, 144 h, read-out: efficacy in %
Procedure, shortened: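 Bean leaf disks carrying all stages of OP-resistant Tetranychus urticae sprayed with compound in acetone/dimethylformamide diluted in emulsifier water. Kill assessed after 6 days as % efficacy, 100% meaning all mites dead.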

[4] = log P determination by HPLC on reversed-phase columns (C 18), analogously to OECD Guideline 117; format: physicochemical; conditions: for logP (HCOOH): LC-MS in the acidic range, pH 2.7, 0.1% aqueous formic acid / acetonitrile; for logP (HCOOH) / logP (neutral): HPLC reversed-phase C 18; for logP (neutral): LC-MS in the neutral range, pH 7.8, 0.001 molar aqueous ammonium hydrogencarbonate / acetonitrile; for chromatographic logP: reversed-phase C18 HPLC column
Procedure, shortened: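 Reversed-phase C18 HPLC per OECD 117 with LC-MS detection and a linear 10→95% acetonitrile gradient. Acidic log P run at pH 2.7 with 0.1% formic acid in both eluents. Neutral log P run at pH 7.8 with 0.001 M aqueous ammonium hydrogencarbonate.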

[5] = system: larvae of the mustard beetle (Phaedon cochleariae); test: Phaedon cochleariae spray test (PHAECO); format: in vivo; conditions: Chinese cabbage leaf disks; application rate 500 g/ha; after 7 days
Experimental: Phaedon cochleariae—Spray Test (PHAECO)
Solvent: 78.0 parts by weight of acetone
• 1.5 parts by weight of dimethylformamide Emulsifier: alkylaryl polyglycol ether
To produce a suitable preparation of active compound, 1 part by weight of active compound is dissolved using the stated parts by weight of solvent and made up with water containing an emulsifier concentration of 1000 ppm until the desired concentration is attained. To produce further test concentrations, the preparation is diluted with emulsifier-containing water.
After 7 days, the efficacy in % is determined. 100% means that all the beetle larvae have been killed; 0% means that no beetle larvae have been killed.

[6] = acidic range, pH 2.7, 0.1% aqueous formic acid and acetonitrile, read-out: log P[a] / log P(HCOOH)
[7] = neutral range, pH 7.8, 0.001 molar aqueous ammonium hydrogencarbonate and acetonitrile, read-out: log P[b] / log P(neutral)

| SMILES | efficacy (laying of fertile eggs) [1] [%] | nematicidal efficacy in % (formation of galls) [2] [%] | efficacy in % ([3]; application rate 500 g/ha) [%] | logP (HCOOH) [4] | logP (neutral) [4] | efficacy in % [5] [%] | pest or weed control at 500 g/ha ([3]; application rate 500 g/ha) [%] | chromatographic logP [4, 6] | chromatographic logP [4, 7] | efficacy in % ([3]; application rate 100 g/ha) [%] |
| --- | --- | --- | --- | --- | --- | --- | --- | --- | --- | --- |
| Cc1cc(F)c(-n2c(=O)n(C3CC3)c(=O)n2C)cc1[S+]([O-])CC(F)(F)F (centres unmarked) [Example 34] | 100 | 90 | 100 | 1.91 | 1.88 |  |  |  |  |  |
| Cc1cc(F)c(N2C(=O)C(=O)N(C3CCCCC3)C2=O)cc1SCC(F)(F)F [Example 185, 1-Cyclohexyl-3-{2-fluoro-4-methyl-5-[(2,2,2-trifluoroethyl)sulfanyl]phenyl}imidazolidine-2,4,5-trione] |  |  |  |  |  | 100 | 90 | 4.32 | 4.27 |  |
| Cc1ccc(-n2c(=O)n(C)c(=O)n2-c2ccc(C)c([S+]([O-])CC(F)(F)F)c2)cc1SCC(F)(F)F (centres unmarked) [Example 84] |  |  |  | 3.46 | 3.38 | 100 |  |  |  |  |
| Cc1cc(F)c(N2C(=O)C(=O)N(C3CCCCC3)C2=O)cc1[S+]([O-])CC(F)(F)F (centres unmarked) [Example 186, 1-Cyclohexyl-3-{2-fluoro-4-methyl-5-[(2,2,2-trifluoroethyl)sulfinyl]phenyl}imidazolidin-2,4,5-trion] |  |  |  |  |  | 100 | 100 | 3.36 | 3.33 |  |
| Cc1cc(C)c([S+]([O-])CC(F)(F)F)cc1-n1c(=O)n(C2CC2)c(=O)n1C (centres unmarked) [Example 47] | 100 |  | 90 | 1.98 | 1.93 |  |  |  |  |  |
| Cc1cc(F)c(N2C(=O)CSC2=NCC(C)C)cc1SCC(F)(F)F [Example 115] | 100 |  | 100 | 4.33 | 4.31 |  |  |  |  |  |
| Cc1cc(F)c(N2CC(=O)N(C3CC3)C2=O)cc1SCC(F)(F)F [Example 210] | 100 | 90 | 100 | 2.91 |  |  |  |  |  |  |
| Cc1ccc(-n2c(=O)n(C)c(=O)n2Cc2ccccc2)cc1SCC(F)(F)F [Example 57] |  |  |  | 3.62 | 3.56 | 100 |  |  |  |  |
| Cn1c(=O)n(C2CC2)c(=O)n1-c1ccc(C(F)(F)F)c([S+]([O-])CC(F)(F)F)c1 (centres unmarked) [Example 54] | 100 | 90 | 100 | 2.63 | 2.58 |  |  |  |  |  |
| Cc1ccc(-n2c(=O)n(C3CC3)c(=O)n2C)cc1[S+]([O-])CC(F)(F)F (centres unmarked) [Example 37] | 100 | 100 | 100 | 1.89 | 1.87 |  |  |  |  |  |
| Cc1cc(F)c(N2CCOC2=O)cc1SCC(F)(F)F [Example 104, 3-[2-Fluoro-4-methyl-5-(2,2,2-trifluoroethylsulfanyl)phenyl]oxazolidin-2-one] | 100 |  |  |  |  |  | 100 | 2.66 |  |  |
| Cc1cc(F)c(N2CC(=O)N(C)C2=O)cc1[S+]([O-])CC(F)(F)F (centres unmarked) [Example 208] | 100 | 90 | 100 | 1.68 |  |  |  |  |  |  |
| Cc1ccc(-n2c(=O)n(C)c(=O)n2Cc2ccccc2Cl)cc1SCC(F)(F)F [Example 60] |  |  |  | 3.80 | 3.75 | 83 |  |  |  |  |
| Cc1cc(F)c(N2C(=O)C(=O)N(CC(F)(F)F)C2=S)cc1[S+]([O-])CC(F)(F)F (centres unmarked) [Example 190] |  |  | 90 | 3.03 |  | 100 |  |  |  |  |
| Cn1c(=O)n(C)n(-c2cc(SCC(F)(F)F)c(Cl)cc2F)c1=O [Example 30] |  | 90 | 100 | 2.71 | 2.67 |  |  |  |  |  |
| Cc1cc(F)c(N2C(=O)CSC2=NCC(F)(F)F)cc1[S+]([O-])CC(F)(F)F (centres unmarked) [Example 13, 3-{2-Fluoro-4-methyl-5-[(2,2,2-trifluoroethyl)sulfinyl]phenyl}-2-[(2,2,2-trifluoroethyl)imino]-1,3-thiazolidin-4-one] | 100 | 90 |  |  |  |  | 90 | 2.7 | 2.64 |  |
| C=CCn1c(=O)n(C2CC2)c(=O)n1-c1ccc(C)c(SCC(F)(F)F)c1 [Example 48] | 80 |  | 100 | 3.37 | 3.31 |  |  |  |  |  |
| C=CCn1c(=O)n(C)n(-c2cc([S+]([O-])CC(F)(F)F)c(C)cc2F)c1=O (centres unmarked) [Example 80] |  | 90 | 100 | 2.07 | 2.03 |  |  |  |  |  |
| Cc1cc(F)c(N2CCN(C)C2=O)cc1SCC(F)(F)F [Example 198] |  |  | 100 | 2.79 | 2.75 | 83 |  |  |  |  |
| C=CCn1c(=O)n(C)n(-c2cc(SCC(F)(F)F)c(C)cc2F)c1=O [Example 81] |  | 90 |  | 3.05 | 3.01 |  |  |  |  | 100 |
| Cc1cc(F)c(N2CC(=O)N(C3CC3)C2=O)cc1[S+]([O-])CC(F)(F)F (centres unmarked) [Example 209] | 100 | 90 | 100 | 1.92 |  |  |  |  |  |  |
| Cc1cc(F)c(-n2c(=O)n(C3CC3)c(=O)n2C)cc1SCC(F)(F)F [Example 35] | 100 | 100 | 100 | 2.83 | 2.81 |  |  |  |  |  |
| Cc1cc(F)c(N2CC(=O)N(C)C2=O)cc1SCC(F)(F)F [Example 211] | 100 |  | 100 | 2.66 |  | 83 |  |  |  |  |
| CCn1c(=O)n(C)n(-c2cc([S+]([O-])CC(F)(F)F)c(C)cc2F)c1=O (centres unmarked) [Example 74] |  | 90 |  | 1.93 | 1.91 |  |  |  |  | 90 |
| Cc1ccc(-n2c(=O)n(C)c(=O)n2CC2CC2)cc1SCC(F)(F)F [Example 52] |  | 100 | 100 | 3.34 | 3.29 | 100 |  |  |  |  |
